BODIPY = fluorogenic core (…diaza-s-indacene), attached to Trp by a spacer-free C—C linkage
B1: Annexin V: recombinant protein, PS binding agent binding PS in the presence of calcium; used as Alexa 647 conjugate (protein, UniProt P08758 2-320, looked up)
Annexin A5: AQVLRGTVTDFPGFDERADAETLRKAMKGLGTDEESILTLLTSRSNAQRQEISAAFKTLFGRDLLDDLKSELTGKFEKLIVALMKPSRLYDAYELKHALKGAGTNEKVLTEIIASRTPEELRAIKQVYEEEYGSSLEDDVVGDTSGYYQRMLVVLLQANRDPDAGIDEAQVEQDAQALFQAGELKWGTDEEKFITIFGTRSVSHLRKVFDKYMTISGFQIEETIDRETSGNLEQLLLAVVKSIRSIPAYLAETLYYAMKGAGTDDHTLIRVMVSRSEIDLFNIRKEFRKNFATSLYSMIKGDTSGDYKKALLLLCGEDD
modifications: Alexa 647 label
notes: used as Alexa 647 conjugate

Assays:
PS positive cells [1] = experiment: Flow cytometry of Atto 647 Item-2 stained U937 cells before and after 2% PFA fixation; format: cell-based; settings: U937 cells in PBS without Ca2+
Description: In order to validate if the PS positive cells stained with Atto 647 Item-2 are fixable, the fresh and 2 days IL-4 stimulated U937 cells were simultaneously stained with 28 pM/test of Atto 647 Item-2 and 20 nM of Sytox Blue, then the cells were split into two sets. One set of cells were analyzed with flow cytometry right after staining without wash, the other set of cells were fixed by adding 16% of Paraformaldehyde (PFA) to the final concentration at 2% PFA for 10 minutes at room temperature followed by centrifugation at 350 g for 5 minutes. Then the cells were resuspended in PBS without Ca^2+. The fresh cells and stimulated cells with or without fixation were analyzed on day 0 and day 2 respectively. The cells were analyzed with NovoCyte Quanteon flow cytometry without wash.

PS positive cells [2] = experiment: Flow cytometry staining of PS positive cells on one day old mouse thymocytes, side by side with Apotracker Green and Annexin V; format: cell-based; settings: one day old C57BL/6 mouse thymocytes, Atto 647 Item-2 28 pM/test and Apotracker 400 nM/test in PBS without Ca2+, Alexa 647 Annexin V in Annexin V binding buffer, Sytox Blue
Excerpt: Whether an agent is considered to be a PS binding agent or to have a PS binding activity, it can be determined by using a flow cytometer to detect the PS binding activity of said agent which has been illustrated in the art. Thereby, PS positive cells can be used in such an assay, wherein the number of stained cells may be compared to the reference agent Apotracker Green and/or Annexin V, in accordance with the present invention.
To validate the Atto 647 Item-2 by flow cytometry, one day old C57BLU6 mouse thymocytes were side by side incubated with 28 pM/test of Atto 647 Item-2 and Sytox Blue or 400 nM/test of Apotracker and Sytox Blue in PBS without Ca^2+ or 5 μLtest of Alexa 647 Annexin V and of Sytox Blue in Annexin V binding buffer for 15 minutes at room temperature, then the cells were analyzed with NovoCyte Quanteon flow cytometry without wash. Debris were gated out based on cell density plot in a lower level of forward scatter. The two-parameter density plots show Atto 647 Item-2 or Apotracker Green or Annexin V versus Sytox Blue. Sytox Blue is an impermeant blue-emitting nucleic acid indicator which is used for indicating the dead cells. Sytox Blue was used at 20 nM/test in herein.
The cells were analyzed with NovoCyte Quanteon flow cytometry without wash.

| Molecule | calcium dependence of PS binding (PS positive cells [1]) | staining pattern and frequencies of PS positive dying cells and dead cells (PS positive cells [2]) |
| --- | --- | --- |
| Item-2: PS binding compound derivative comprising SEQ ID NO: 2 [RKKWFWC], head-to-tail cyclized (head-to-tail cyclized) | Ca^2+ independent | – |
| Apotracker Green: cyclic peptide of SEQ ID NO: 1 [RKKWFW(BODIPY)G]; calcium-independent PS binding agent, commercial name Apotracker Green (cyclo(RKKWFW(BODIPY)G)) [reference compound] | – | comparable to each other |
| B1 | – | comparable to each other |
